From US12662521B2, “Engineered osteocalcins for treating sarcopenia” (The Trustees of Columbia University in the City of New York, priority 2020, dated 2026)
“Also recorded” adds a separate entry of the source. Like-named read-outs stand apart in the source and are kept apart here.

Experiments:
[1] = Table 1, drugs developed to target muscle mass; cited from earlier work
[2] = tested on: dexamethasone-treated mice; settings: for running capacity / exercise / Muscle mass: dexamethasone-treated mice; for Muscle mass: oxidative, glycolytic and mixed muscles
Excerpt: It was also further examined whether an osteocalcin treatment might preserve muscle function and/or muscle mass in a clinically relevant mouse model of sarcopenia.
FIG. 9A and FIG. 9B show exemplary graphs pf exemplary modeling sarcopenia in mice.

young and older mice [3] = settings: exogenous osteocalcin, data of WO 2016/081728, cited from earlier work
young and older mice [4] = experiment: exercise capacity of young and older mice given exogenous osteocalcin; format: in vivo; settings: FIG. 1
Excerpt: Exemplary data showing that osteocalcin signaling in myofibers favors adaptation to exercise because it increases uptake and utilization of glucose into the tricarboxylic acid cycle and promotes fatty acids utilization are included in International Patent Application Publication WO 2016/081728, the disclosure of which is incorporated herein by reference. Osteocalcin signaling in myofibers is also the main determinant of the exercise-induced upregulation of Interleukin-6, a myokine that favors the generation of bioactive osteocalcin and of nutrients made available for myofibers. Furthermore, circulating osteocalcin levels decline steeply before mid-life and increase less during exercise in older than in younger mice. […] Thus, there is an osteocalcin-interleukin-6 axis that can be necessary to enhance muscle function during exercise and can be harnessed to reverse age-induced decline in exercise capacity.
Exemplary data showing that, by signaling in myofibers, osteocalcin favors adaptation to exercise because it promotes glucose uptake and utilization in the tricarboxylic acid (TCA) cycle as well as utilization of FAs are also included in International Patent Application Publication WO 2016/081728, the disclosure of which is incorporated herein by reference. […]

Liver Factor 1 = Liver Factor 1 production during exercise; format: in vivo; settings: FIG. 7
Excerpt: OCN signaling in the liver is required for exercise capacity (see FIG. 6). OCN enhances Liver Factor 1 production during exercise (see FIG. 7). Liver Factor 1 mediates OCN regulation of exercise capacity (see FIG. 8).

[5] = tested on: mice that received dexamethasone; experiment: deleterious effect of dexamethasone on muscle function, osteocalcin given concomitantly or after two weeks of dexamethasone; format: in vivo
Dexamethasone mice = experiment: another recognized model of sarcopenia: dexamethasone delivered by pumps for 28 days, muscle mass and treadmill running; format: in vivo; design: dose or concentration left out as unconfirmed; settings: dexamethasone by pumps for 28 days; osteocalcin also by pumps

Molecule: CN(C)N(C)C(=O)[C@@]1(Cc2ccccc2)CCCN(C(=O)[C@@H](Cc2c[nH]c3ccccc23)NC(=O)C(C)(C)N)C1 [Anamorelin, reference compound]
- Muscle mass [1]: ✓

Molecule: C[C@](O)(COc1ccc(C#N)cc1)C(=O)Nc1ccc(C#N)c(C(F)(F)F)c1 [Enbosarm, reference compound]
- Muscle mass [1]: ✓

Molecule: C[C@H](Nc1ccc(C#N)c(Cl)c1Cl)C(C)(C)O [GSK2849466, reference compound]
- Muscle mass [1]: ✓

Molecule: N#Cc1ccc(N2CCC[C@@H]2[C@@H](O)C(F)(F)F)cc1C(F)(F)F [VK5211, reference compound]
- Muscle mass [1]: ✓
- running capacity / exercise [2]: only had a modest effect
- Muscle mass [2]: fully restored muscle mass to normal levels

Molecule: C[C@@H]1C[C@H]2[C@@H]3CCC4=CC(=O)C=C[C@]4(C)[C@@]3(F)[C@@H](O)C[C@]2(C)[C@@]1(O)C(=O)CO [dexamethasone, reference compound]
- decrease of circulating lymphocyte counts ([2]; after dexamethasone treatment): 50%
- diminution of gastrocnemius muscle mass ([2]; mouse, in vivo): 30%
- reduction of running capacity ([2]; mouse, in vivo): 50%

Molecule: osteocalcin (YLGASVPSPDPLEPTREQCELNPACDELSDQYGLKTAYKRIYGITI; UniProt P86546 50-95, looked up) [a bone-derived hormone]
- safety / negative side-effects (animal models): safe with no recorded negative side-effects
- exercise capacity of older mice (young and older mice [3]; 12 to 15 month-old mice): confers to 15 months-old mice exercise capacity of 3 month-old mice; also recorded: confers to 12 to 15 month-old mice the exercise capacity of 3 month-old mice
- exercise capacity of young mice (young and older mice [3]): increases the exercise capacity
- age-related decline in exercise (young and older mice [4]): corrects
- Liver Factor 1 production during exercise (Liver Factor 1): enhances
- performance compared with VK5211 ([2]; Dex-induced sarcopenia): outperforms
- IL-6 in Dex-induced sarcopenia ([2]; FIG. 12): favors IL-6
- running capacity / exercise [2]: fully rescued the running capacity
- Muscle mass ([2]; listed as OCN): marginal effect
- DEX toxicity ([2]; mouse, in vivo): does not interfere
- dexamethasone-induced immune suppression (circulating lymphocyte counts) ([2]; mouse, in vivo): did not interfere with nor did it exacerbate
- off-target effects ([2]; mouse, in vivo): no overt off-target effects
- deleterious effect of dexamethasone on muscle function ([5]; concomitant treatment with osteocalcin, 1 year-old mice): presented
- deleterious effect of dexamethasone on muscle function ([5]; osteocalcin administered in mice that had already received dexamethasone for two weeks): partially revert
- Muscle mass (Dexamethasone mice): lost significantly less muscle mass
- exercise capacity (ability to run on a treadmill) (Dexamethasone mice): normal exercise capacity

B1: REGN1033: Myostatin inhibitor, Regeneron (antibody, chains of the INN, looked up, V domains shown)
VH: EVQVLESGGDLVQPGGSLRLSCAASGFTFSAYAMTWVRQAPGKGLEWVSAISGSGGSAYYADSVKGRFTISRDNSKNTVYLQMNSLRAEDTAVYYCAKDGAWKMSGLDVWGQGTTVIVSS
VL: DIQMTQSPASLSASVGDRVTITCRASQDISDYLAWYQQKPGKIPRLLIYTTSTLQSGVPSRFRGSGSGTDFTLTISSLQPEDVATYYCQKYDSAPLTFGGGTKVEIK
- Muscle mass [1]: ✓

B2: LY2495655: Myostatin inhibitor, Eli Lilly (antibody, chains of the INN, looked up, V domains shown)
VH: EVQLVESGGGLVQPGGSLRLSCAASGLTFSRYPMSWVRQAPGKGLVWVSAITSSGGSTYYSDTVKGRFTISRDNAKNTLYLQMNSLRAEDTAVYYCARLPDYWGQGTLVTVSS
VL: EIVLTQSPGTLSLSPGERATLSCRASSSVSSSYLHWYQQKPGQAPRLLIYSTSNLVAGIPDRFSGSGSGTDFTLTISRLEPEDFAVYYCQHHSGYHFTFGGGTKVEIK
- Muscle mass [1]: ✓

B3: PF-06252616: Myostatin inhibitor, Pfizer (antibody, chains of the INN, looked up, V domains shown)
VH: EVQLLESGGGLVQPGGSLRLSCAASGFTFSSYAMSWVRQAPGKGLEWVSTISSGGSYTSYPDSVKGRFTISRDNSKNTLYLQMNSLRAEDTAVYYCAKQDYAMNYWGQGTLVTVSS
VL: DIQMTQSPSSLSASVGDRVTITCKASQDVSTAVAWYQQKPGKAPKLLIYSASYRYTGVPSRFSGSGSGTDFTLTISSLQPEDFATYYCQQHYSTPWTFGGGTKVEIK
- Muscle mass [1]: ✓

B4: BYM338: Myostatin inhibitor, Novartis (antibody, chains of the INN, looked up, V domains shown)
VH: QVQLVQSGAEVKKPGASVKVSCKASGYTFTSSYINWVRQAPGQGLEWMGTINPVSGSTSYAQKFQGRVTMTRDTSISTAYMELSRLRSDDTAVYYCARGGWFDYWGQGTLVTVSS
VL: QSALTQPASVSGSPGQSITISCTGTSSDVGSYNYVNWYQQHPGKAPKLMIYGVSKRPSGVSNRFSGSKSGNTASLTISGLQAEDEADYYCGTFAGGSYYGVFGGGTKLTVL
- Muscle mass [1]: ✓
